According to ChEMBL document CHEMBL3813691, “Quantitative relationships between structure and cytotoxic activity of flavonoid derivatives. An application of Hirshfeld surface derived descriptors” (Bioorg Med Chem Lett, 2016):

System: not listed separately
Test: Selectivity ratio of IC50 for HUVEC to IC50 for human HL60 cells
Type: cell-based, HL-60
Conditions: HUVEC and HL60 cells, read-out: Ratio IC50

| Structure (SMILES) | selectivity ratio |
| --- | --- |
| CN1N=C2c3ccccc3OC(c3ccccc3)C2C1c1ccc(Cl)cc1 (stereo not drawn) | 10 |
| CN1N=C2c3ccccc3OC(c3ccccc3)C2C1c1ccc(Br)cc1 (stereo not drawn) | 25 |

System: not listed separately
Test: Cytotoxicity against human HL60 cells assessed as reduction in cell survival
Type: functional, cell-based
Conditions: HL-60

| Structure (SMILES) | IC50 [µM] |
| --- | --- |
| COc1cc([C@@H]2c3cc4c(cc3[C@@H](O[C@@H]3O[C@@H]5CO[C@@H](C)O[C@H]5[C@H](O)[C@H]3O)[C@H]3COC(=O)[C@H]23)OCO4)cc(OC)c1O [ETOPOSIDE] | 0.025 |

System: not listed separately
Test: Cytotoxicity against human HL60 cells assessed as reduction in cell survival after 46 hrs by MTT assay
Type: functional, cell-based
Conditions: HL-60, 46 h

| Structure (SMILES) | IC50 [µM] |
| --- | --- |
| O=C1/C(=C\c2ccccc2)C(c2ccccc2)Oc2ccccc21 (stereo not drawn) | 33.3 |
| Cc1ccc(C2C3C(=NN2C)c2ccccc2OC3c2ccccc2)cc1 (stereo not drawn) | 27.8 |
| CN1N=C2c3cc(O)ccc3OC(c3ccccc3)C2C1c1ccccc1 (stereo not drawn) | 37.7 |
| Oc1cccc(C2NN=C3c4ccccc4OC(c4ccccc4)C32)c1 (stereo not drawn) | 50 |
| O=C1c2ccccc2OC(c2ccccc2)C12N=NCC2c1ccc([N+](=O)[O-])cc1 (stereo not drawn) | 54.6 |
| CN1N=C2c3ccccc3OC(c3ccccc3)C2C1c1ccc(Cl)cc1 (stereo not drawn) | 7.4 |
| COc1ccc(C2C3C(=NN2C)c2ccccc2OC3c2ccccc2)cc1 (stereo not drawn) | 541 |
| Oc1ccc(C2NN=C3c4ccccc4OC(c4ccccc4)C32)cc1 (stereo not drawn) | 42 |
| CN1N=C2c3ccccc3OC(c3ccccc3)C2C1c1cccc(C#N)c1 (stereo not drawn) | 65.4 |
| CN1N=C2c3ccccc3OC(c3ccccc3)C2C1c1ccc(F)cc1 (stereo not drawn) | 97.7 |
| CN1N=C2c3ccccc3OC(c3ccccc3)C2C1c1ccc(O)cc1 (stereo not drawn) | 47.7 |
| c1ccc(C2Oc3ccccc3C3=NNC(c4ccncc4)C32)cc1 (stereo not drawn) | 49.7 |
| CN1N=C2c3ccccc3OC(c3ccccc3)C2C1c1ccc(Br)cc1 (stereo not drawn) | 7.5 |
| COc1cccc(C2C3C(=NN2C)c2ccccc2OC3c2ccccc2)c1 (stereo not drawn) | 70.3 |
| N#Cc1cccc(C2CN=NC23C(=O)c2ccccc2OC3c2ccccc2)c1 (stereo not drawn) | 75 |
| Oc1ccc2c(c1)C1=NNC(c3ccccc3)C1C(c1ccccc1)O2 (stereo not drawn) | 27.3 |
| CN1N=C2c3ccccc3OC(c3ccccc3)C2C1c1ccc(C#N)cc1 (stereo not drawn) | 20.1 |
| Cc1cccc(C2C3C(=NN2C)c2ccccc2OC3c2ccccc2)c1 (stereo not drawn) | 60.5 |
| CN1N=C2c3ccccc3OC(c3ccccc3)C2C1c1ccccc1 (stereo not drawn) | 54.1 |
| CN1N=C2c3ccccc3OC(c3ccccc3)C2C1c1cccc(O)c1 (stereo not drawn) | 344 |
| COc1cccc(C2CN=NC23C(=O)c2ccccc2OC3c2ccccc2)c1 (stereo not drawn) | 74.9 |

System: HUVEC
Test: Cytotoxicity against HUVEC assessed as reduction in cell survival after 46 hrs by MTT assay
Type: cell-based
Conditions: Homo sapiens

| Structure (SMILES) | IC50 [µM] |
| --- | --- |
| O=C(/C=C/c1ccccc1Cl)c1ccccc1O | 7.8 |
| O=C1/C(=C/c2ccc(Cl)cc2)C(c2ccccc2)Oc2ccccc21 (stereo not drawn) | 6.9 |
| CN1N=C2c3ccccc3OC(c3ccccc3)C2C1c1ccc(Cl)cc1 (stereo not drawn) | 70.9 |
| CN1N=C2c3ccccc3OC(c3ccccc3)C2C1c1ccc(Br)cc1 (stereo not drawn) | 184 |
